Experimental data published in US20230303540A1 (Merck Sharp & Dohme LLC, priority 2020, published 2023).

Target: GST-tagged truncated human mutant G2019S LRRK2 (Homo sapiens, UniProt Q5S007, G2019S)
Test: LRRK2 G2019S Km ATP LanthaScreen assay
Type: biochemical
Conditions: 134 μM ATP (Km ATP), LRRKtide substrate, mean IC50 values; read-out: LRRK2 pIC50 (converted)
Method: Unless otherwise noted, all reactions are magnetically stirred. Unless otherwise noted, when diethyl ether is used in the experiments described below, it is Fisher ACS certified material and is stabilized with BHT. Unless otherwise noted, “concentrated” and/or “solvent removed under reduced pressure” means evaporating the solvent from a solution or mixture using a rotary evaporator or vacuum pump. Unless otherwise noted, flash chromatography is carried out on a Teledyne Isco (Lincoln, NE), Analogix (Burlington, WI), or Biotage (Stockholm, SWE) automated chromatography system using a commercially available cartridge as the column. Columns may be purchased from Teledyne Isco, Analogix, Biotage, Varian (Palo Alto, CA), or Supelco (Bellefonte, PA) and are usually filled with silica gel as the stationary phase. Reverse phase prep-HPLC conditions, where used, can be found at the end of each experimental section. Aqueous solutions were concentrated on a Genevac (Ipswich, ENG) or by freeze-drying/lyophilization. Unless otherwise noted, all LRRK2 pIC50 data presented in tables refers to the LRRK2 G2019S Km ATP LanthaScreen™ assay (Life Technologies Corp., Carlsbad, CA) that is described in the Biological Assay section.
The IC50 values reported herein were measured as follows.
Biological Assay: LRRK2 Km ATP LanthaScreen™ Assay
The LRRK2 kinase activity reported herein as IC50 values was determined with LanthaScreen™ technology from Life Technologies Corporation (Carlsbad, CA) using GST-tagged truncated human mutant G2019S LRRK2 in the presence of the fluorescein-labeled peptide substrate LRRKtide, also from Life Technologies. The data presented for the Km ATP LanthaScreen™ Assay represents mean IC50 values based on several test results and may have reasonable deviations depending on the specific conditions and reagents used. Assays were performed in the presence of 134 μM ATP (Km ATP). Upon completion, the assay was stopped and phosphorylated substrate detected with a terbium (Tb)-labeled anti-pERM antibody (cat. no. PV4898). The compound dose response was prepared by diluting a 10 mM stock of compound to a maximum concentration of 9.99 μM in 100% dimethylsulfoxide followed by custom fold serial dilution in dimethylsulfoxide nine times. Twenty nanoliters of each dilution was spotted via a Labcyte Echo onto a 384-well black-sided plate (Corning 3575) followed by 15 μl of a 1.25 nM enzyme solution in 1× assay buffer (50 mM Tris pH 8.5, 10 mM MgCl2, 0.01% Brij-35, 1 mM EGTA, 2 mM dithiothreitol, 0.05 mM sodium orthovanadate). Following a 15-minute incubation at room temperature, the kinase reaction was started with the addition of 5 μl of 400 nM fluorescein-labeled LRRKtide peptide substrate and 134 μM ATP solution in 1× assay buffer. The reaction was allowed to progress at ambient temperature for 90 minutes. The reaction was then stopped by the addition of 20 μl of TR-FRET Dilution Buffer (Life Technologies, Carlsbad, CA) containing 2 nM Tb-labeled anti-phospho LRRKtide antibody and 10 mM EDTA (Life Technologies, Carlsbad, CA). After an incubation of 1 hour at room temperature, the plate was read on an EnVision multimode plate reader (Perkin Elmer, Waltham, MA) with an excitation wavelength of 337 nm (Laser) and a reading emission at both 520 and 495 nm. Compound IC50s were interpolated from nonlinear regression best fits of the log of the final compound concentration, plotted as a function of the 520/495-nm emission ratio using Activity base. Abase uses a 4 parameter (4P) logistic fit based on the Levenberg-Marquardt algorithm.

Row | SMILES | IC50 [nM]
1 | Cc1cc2cnc(Nc3cnn(C4CC4)c3C)nc2cc1N1CCN(C2(C)COC2)CC1 [Ex-5.11, N-(1-cyclopropyl-5-methyl-1H-pyrazol-4-yl)-6-methyl-7-[4-(3-methyloxetan-3-yl)piperazin-1-yl]quinazolin-2-amine] | 2.82
2 | CC1(N2CCN(c3cc4nc(Nc5cnn(C(C)(C)C)c5)ncc4cc3Cl)CC2)COC1 [Ex-4.46, N-(1-tert-butyl-1H-pyrazol-4-yl)-6-chloro-7-[4-(3-methyloxetan-3-yl)piperazin-1-yl]quinazolin-2-amine] | 0.792
3 | CC1(N2CCN(c3cc4nc(Nc5cnn(C6CC6(F)F)c5Cl)ncc4cc3Cl)CC2)COCC1O (single isomer, unassigned) [Ex-6.2, (3S,4S) or (3R,4R) 4-(4-(6-chloro-2-((5-chloro-1-(2,2-(R) or (S)difluorocyclopropyl)-1H-pyrazol-4-yl)amino)quinazolin-7-yl)piperazin-1-yl)-4-methyltetrahydrofuran-3-ol] | 0.08
4 | CC1(N2CCN(c3cc4nc(Nc5cnn(C6CC6(F)F)c5Cl)ncc4cc3Cl)CC2)COC1 (single isomer, unassigned) [Ex-4.61, 6-chloro-N-[5-chloro-1-(2,2-(R) or (S)difluorocyclopropyl)-1H-pyrazol-4-yl]-7-[4-(3-methyloxetan-3-yl)piperazin-1-yl]quinazolin-2-amine] | 7.3
5 | C[C@H]1COC(=O)N1c1ccc2cnc(Nc3cn(C)nc3C(F)(F)F)nc2c1 [Ex-7.7, (4S)-4-methyl-3-(2-{[1-methyl-3-(trifluoromethyl)-1H-pyrazol-4-yl]amino}quinazolin-7-yl)-1,3-oxazolidin-2-one] | 1.92
6 | Cc1c(Nc2ncc3cc(Cl)c(N4CCN(C5COC(C)(C)C5)CC4)cc3n2)cnn1C1CC1 (single isomer, unassigned) [Ex-12.1] | 2.93
7 | O=C1COCC12CCN(c1cc3nc(Nc4cnn(C5CC5)c4Cl)ncc3cc1Cl)CC2 [Ex-3.36, 8-{6-chloro-2-[(5-chloro-1-cyclopropyl-1H-pyrazol-4-yl)amino]quinazolin-7-yl}-2-oxa-8-azaspiro[4.5]decan-4-one] | 3.02
8 | Cc1c(Nc2ncc3ccc(N4C(=O)OCC4C4CC4)cc3n2)cnn1C1CCOCC1 (single isomer, unassigned) [Ex-7.13, (R) or (S) 4-cyclopropyl-3-(2-{[5-methyl-1-(oxan-4-yl)-1H-pyrazol-4-yl]amino}quinazolin-7-yl)-1,3-oxazolidin-2-one] | 11.4
9 | Cc1c(Nc2ncc3cc(Cl)c(N4CCN(C5(C)COCC5O)CC4)cc3n2)cnn1C1CC1 (single isomer, unassigned) [Ex-6.22, (3S,4S) or (3R,4R) 4-(4-{6-chloro-2-[(1-cyclopropyl-5-methyl-1H-pyrazol-4-yl)amino]quinazolin-7-yl}piperazin-1-yl)-4-methyloxolan-3-ol] | 33.5
10 | CC1(N2CCN(c3cc4nc(Nc5cnn(CC6CC6(F)F)c5)ncc4cc3Cl)CC2)COC1 (centres unmarked) [Ex-4.70, 6-chloro-N-{1-[(2,2-difluorocyclopropyl)methyl]-1H-pyrazol-4-yl}-7-[4-(3-methyloxetan-3-yl)piperazin-1-yl]quinazolin-2-amine] | 4.93
11 | CC1(O)CCN(c2c(Cl)cc3cnc(Nc4cnn(C56CC(C5)C6)c4Cl)nc3c2Cl)CC1 [Ex-6.12, 1-(2-{[1-(bicyclo[1.1.1]pentan-1-yl)-5-chloro-1H-pyrazol-4-yl]amino}-6,8-dichloroquinazolin-7-yl)-4-methylpiperidin-4-ol] | 1.24
12 | CO[C@H]1C[C@H](n2ncc(Nc3ncc4cc(Cl)c(N5CCC(C)(O)CC5)cc4n3)c2C)C1 [Ex-6.13, 1-(6-chloro-2-{[1-(trans-3-methoxycyclobutyl)-5-methyl-1H-pyrazol-4-yl]amino}quinazolin-7-yl)-4-methylpiperidin-4-ol] | 0.976
13 | OC1CN(C2CCN(c3cc4nc(Nc5cnn(C6CC6)c5Cl)ncc4cc3Cl)CC2)C1 [Ex-1.37, 1-(1-{6-chloro-2-[(5-chloro-1-cyclopropyl-1H-pyrazol-4-yl)amino]quinazolin-7-yl}piperidin-4-yl)azetidin-3-ol] | 1.71
14 | Cc1c(Nc2ncc3cc(Cl)c(N4CCN(C5(C)COC(C)(C)C5)CC4)cc3n2)cnn1C1CC1 (single isomer, unassigned) [Ex-12.3] | 186
15 | Cc1c(Nc2ncc3cc(Cl)c(N4CCN(C5COCC5O)CC4)cc3n2)cnn1C1CC1(F)F (single isomer, unassigned) [Ex-6.44, (3S,4S) or (3R,4R) 4-[4-(6-chloro-2-{[1-(2,2-(R) or (S)difluorocyclopropyl)-5-methyl-1H-pyrazol-4-yl]amino}quinazolin-7-yl)piperazin-1-yl]oxolan-3-ol] | 6.89
16 | O[C@@H]1COC[C@@H]1N1CCN(c2nc3nc(Nc4cnn(C5CC5)c4Cl)ncc3cc2Cl)CC1 (single isomer, unassigned) [Ex-16.2, (3S,4S) or (3R, 4R)-4-(4-(6-Chloro-2-((5-chloro-1-cyclopropyl-1H-pyrazol-4-yl)amino)pyrido[2,3-d]pyrimidin-7-yl)piperazin-1-yl)tetrahydrofuran-3-ol] | 126
17 | CC1(N2CCN(c3cc4nc(Nc5cnn(C6CC6)c5Cl)ncc4cc3Cl)CC2)COC1 [Ex-4.17, 6-chloro-N-(5-chloro-1-cyclopropyl-1H-pyrazol-4-yl)-7-[4-(3-methyloxetan-3-yl)piperazin-1-yl]quinazolin-2-amine] | 2.32
18 | Cc1cc2cnc(Nc3cnn(C4CC4)c3Cl)nc2cc1N1CCN(C2(C)COC2)CC1 [Ex-5.10, N-(5-chloro-1-cyclopropyl-1H-pyrazol-4-yl)-6-methyl-7-[4-(3-methyloxetan-3-yl)piperazin-1-yl]quinazolin-2-amine] | 5.67
19 | Cc1c(Nc2ncc3cc(Cl)c(N4CCN(C5COCC5O)CC4)cc3n2)cnn1C (single isomer, unassigned) [Ex-6.24, (3S,4S) or (3R,4R) 4-(4-{6-chloro-2-[(1,5-dimethyl-1H-pyrazol-4-yl)amino]quinazolin-7-yl}piperazin-1-yl)oxolan-3-ol] | 0.603
20 | Cn1cc(Nc2ncc3cc(Cl)c(N4CCN(C5(C)COC5)CC4)cc3n2)c(C(F)(F)F)n1 [Ex-4.21, 6-chloro-7-[4-(3-methyloxetan-3-yl)piperazin-1-yl]-N-[1-methyl-3-(trifluoromethyl)-1H-pyrazol-4-yl]quinazolin-2-amine] | 36.8
21 | CC(C)(O)Cn1ncc(Nc2ncc3cc(Cl)c(N4CCN(C5(C)COC5)CC4)cc3n2)c1Cl [Ex-4.51, 1-[5-chloro-4-({6-chloro-7-[4-(3-methyloxetan-3-yl)piperazin-1-yl]quinazolin-2-yl}amino)-1H-pyrazol-1-yl]-2-methylpropan-2-ol] | 2.76
22 | Cc1cc2cnc(Nc3cnn(C4CC4(F)F)c3Cl)nc2cc1N1CCN([C@H]2COC[C@H]2O)CC1 (single isomer, unassigned) [Ex-5.1, (3S, 4S) or (3R, 4R) 4-(4-(2-((5-Chloro-1-(2,2-(R) or (S)difluorocyclopropyl)-1H-pyrazol-4-yl)amino)-6-methylquinazolin-7-yl)piperazin-1-yl)tetrahydrofuran-3-ol] | 0.105
23 | Cc1cc2cnc(Nc3cnn(C4CC4)c3Cl)nc2cc1N1CCN(C2(C)COCC2O)CC1 (single isomer, unassigned) [Ex-5.6, (3S,4S) or (3R,4R) 4-(4-(2-((5-chloro-1-cyclopropyl-1H-pyrazol-4-yl)amino)-6-methylquinazolin-7-yl)piperazin-1-yl)-4-methyltetrahydrofuran-3-ol] | 0.403
